Measured values from the supplement of paper PMC10307832.

What was measured:
Experiment in all cases: relative viability (nuclei count vs DMSO), 5 days (fraction); higher = more cells survive
[1] = compound: C1/C(=C\C2=CC=CS2)/C(=O)/C(=C/C3=CC=CS3)/C1 + CC(C)C[C@H](NC(=O)[C@H](Cc1ccccc1)NC(=O)c1cnccn1)B(O)O [Bortezomib] (partner 0.002 µM)
Outline: (§1)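 Relative viability was taken as the ratio of nuclei in treated wells to nuclei in vehicle wells. Lung cancer cell lines in 1536-well plates received compounds by pin tool one day after seeding, either one drug alone or a fixed anchor-drug dose plus five library-drug doses (not always all listed) in √10 steps. Nuclei were counted on 4× images after 5 days of treatment, and values are medians of duplicate plates.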

[2] = compound: C1/C(=C\C2=CC=CS2)/C(=O)/C(=C/C3=CC=CS3)/C1 + COc1cc2c(Oc3ccc(NC(=O)C4(C(=O)Nc5ccc(F)cc5)CC4)cc3F)ccnc2cc1OCCCN1CCOCC1 [Foretinib] (partner 0.25 µM)
Outline: as §1

TPCA-1 + Tozasertib = compound: C1=CC(=CC=C1C2=CC(=C(S2)NC(=O)N)C(=O)N)F [TPCA-1] + Cc1cc(Nc2cc(N3CCN(C)CC3)nc(Sc3ccc(NC(=O)C4CC4)cc3)n2)n[nH]1 [Tozasertib] (partner 0.1 µM)
Outline: as §1

[3] = compound: C[C@]12O[C@H](C[C@]1(O)CO)n1c3ccccc3c3c4c(c5c6ccccc6n2c5c31)CNC4=O [Lestaurtinib] + O=C(CCCCCCC(=O)Nc1ccccc1)NO [Vorinostat] (partner 1 µM)
Outline: as §1

Cell Line	relative viability ([1]; first compound 0.2 µM)	relative viability ([1]; first compound 0.6325 µM)	relative viability ([1]; first compound 2 µM)	relative viability ([1]; first compound 6.325 µM)	relative viability ([1]; first compound 20 µM)	relative viability ([2]; first compound 0.2 µM)	relative viability ([2]; first compound 0.6325 µM)	relative viability ([2]; first compound 2 µM)	relative viability ([2]; first compound 6.325 µM)	relative viability ([2]; first compound 20 µM)	relative viability (TPCA-1 + Tozasertib; first compound 0.04 µM)	relative viability (TPCA-1 + Tozasertib; first compound 0.1265 µM)	relative viability (TPCA-1 + Tozasertib; first compound 0.4 µM)	relative viability (TPCA-1 + Tozasertib; first compound 1.265 µM)	relative viability (TPCA-1 + Tozasertib; first compound 4 µM)	relative viability ([3]; first compound 0.01581 µM)	relative viability ([3]; first compound 0.05 µM)	relative viability ([3]; first compound 0.1581 µM)	relative viability ([3]; first compound 0.5 µM)	relative viability ([3]; first compound 0.005 µM)
LCLC-97TM1	0.777	0.501	0.737	0.43	0.565	0.965	0.97	0.995	0.797	0.943	0.242	0.261	0.223	0.185	0.117	0.744	0.389	0.187	0.155	
LCLC-103H	1.1	0.998	1.08	1	1.07	0.804	0.8	0.787	0.668	0.732	0.488	0.405	0.515	0.513	0.321	0.83	0.646	0.5	0.395	0.783
LOU-NH91	0.472	0.528	0.459	0.327	0.493	0.953	0.921	0.919	0.827	0.944	0.769	0.57	0.639	0.602	0.423	0.962	0.646	0.422	0.303	0.824
LU99A	1.21	1.13	1.26	0.668	0.941	0.794	0.853	1.01	0.753	0.89	0.276	0.276	0.226	0.242	0.199	0.484	0.416	0.213	0.169	0.437
LXF-289	1.01	0.988	0.971	0.83	0.991	0.982	0.959	0.973	0.994	0.98	0.248	0.203	0.201	0.169	0.122	0.741	0.75	0.472	0.184	0.64
NCI-H23	1.17	1.05	0.953	0.983	1.01	0.973	1.13	1.07	0.851	0.991	0.303	0.348	0.332	0.308	0.248	0.645	0.549	0.308	0.126	0.602
NCI-H322M	1.17	1.31	1.3	1.19	1.12	1	1.06	1.1	0.855	0.874	0.523	0.464	0.462	0.416	0.303	0.935		0.701	0.461	0.764
NCI-H441	0.617	0.516	0.351	0.447	0.482	1.11	0.913	1.15	0.867	0.927	0.946	0.632	0.506	0.379	0.28	0.837	0.62	0.573	0.389	0.641
NCI-H460	1.12	1.26	1.17		1.09	1.02	1.06	1.02	0.881	0.99	0.473	0.69	0.419	0.448	0.0397	1.01	0.653	1.1	0.503	1
NCI-H520	0.575	0.763	0.601	0.401	0.533	0.842	0.93	0.804	0.711	0.632	0.445	0.395	0.448	0.498	0.319	0.675	0.632	0.371	0.211	0.68
NCI-H596	0.868	1.07	1.19	1.08		0.895	0.847	0.872	0.753	0.905	0.834	0.689	0.916	0.86	0.759	0.746	0.718	0.645	0.795	0.539
NCI-H647	0.877	1.09	1.11	0.627	0.912	1.21	1.22	1.11	0.948	1.21	0.262	0.198	0.348	0.129	0.164	0.695	0.391	0.284	0.109	0.629
NCI-H650	0.974	0.849	0.961	1.02	0.768	1.02	0.926	0.933	0.945	0.999	0.707	0.708	0.734	0.546	0.256	0.427	0.385	0.28	0.149	0.448
NCI-H661	0.857	0.716	0.858	0.738	0.732	1.05	1.02	1.02	0.993	1	0.376	0.349	0.366	0.345	0.339	0.669	0.525	0.4	0.339	0.873
NCI-H727	0.783	0.947	1.04	0.698	0.815	0.907	0.802	1.1	0.815	0.96	0.558	0.719	0.693	0.661	0.492	1.35	1.17		0.625	1.23
NCI-H838	0.864	0.787	0.912	0.655	0.782	0.998	1.1	1.04	0.812	0.968	0.257	0.232	0.249	0.217	0.223	0.724	0.681	0.333	0.172	0.792
